Experimental data reported in US20060223837A1 (priority 2005, published 2006).

Key:
[1] = molecular target: T1, human VR1 (Homo sapiens, UniProt Q8NER1); assay: Human VR1 [3H]RTX binding assay; conditions: for Ki: [3H]RTX binding, HEK293 membranes; for inhibition at 1 µM / h Binding % I (1 μM): inhibition of [3H]RTX binding at 1 μM; for inhibition at 1 µM: read-out: h Binding % I (1 μM)
T1 construct: expressed in transfected cells; host or cells: HEK293
Experimental: Compounds of the present invention were tested for their ability to inhibit the binding of tritiated resiniferatoxin ([^3H] RTX) to human VR1 receptors in a [^3H] RTX binding assay, as previously described (Zhang, Sui-Po. Improved ligand binding assays for vanilloid receptors. PCT Int. Appl. (2002), WO 0233411 A1 20020425 AN 2002:315209; Grant, Elfrida R., Dubin, Adrienne E., Zhang, Sui-Po, Zivin, Robert A., Zhong, Zhong Simultaneous intracellular calcium and sodium flux imaging in human VR1-transfected human embryonic kidney cells: a method to resolve ionic dependence of VR1-mediated cell death. J. Pharmacol. Exp. ther., 2002, 300(1), 9-17.) HEK293 cells were transfected with human VR1 and washed with Hank's balanced Salt Solution, dissociated with cell dissociation buffer (Sigma), and then centrifuged at 1000× g for 5 min. Cell pellets were homogenized in cold 20 mM HEPES buffer (pH 7.4), containing 5.8 mM NaCl, 320 mM sucrose, 2 mM MgCl2, 0.75 CaCl2 and 5 mM KCl and centrifuged at 1000× g for 15 min. The resultant supernate was then centrifuged at 40000× g for 15 min. The pelleted membranes were stored in a freezer at −80 C.
Approximately 120 μg protein/ml from membranes were incubated with indicated concentrations of [^3H]RTX in 0.5 ml of the HEPES buffer (pH 7.4) containing 0.25 mg/mL fatty acid-free bovine serum albumin at 37 C for 60 min. After cooling the reaction mixture to 4 C, 0.1 mg (x-acid glycoprotein was added to each sample, which was incubated at 4 C for 15 min and then centrifuged at 18500× g for 15 min. The tip of the microcentrifuge tube containing the pellet was cut off. Bound radioactivity was quantified by scintillation counting. Non-specific binding was assessed in the presence of 200 nM unlabeled resiniferatoxin.
Data were calculated according to the equation: % inhibtion=(total binding−binding)*100/(total binding−non specific binding).
Ki values were calculated based on an average of duplicate measurements using a GraphPad Prism program.

[2] = molecular target: T1, human VR1; assay: Human VR1 functional assay (FLIPR intracellular Ca2+); type: cell-based; conditions: for IC50: antagonism of capsaicin-induced Ca2+ increase, read-out: h IC50; for inhibition at 1 µM: read-out: h % I (1 μM); for inhibition at 5 µM: read-out: h % I (5 μM); for Emax at 12 µM: read-out: % Response Relative to EC80 of Capsaicin (12 μM); for EC50: agonist-induced Ca2+ increase, read-out: h EC50; for inhibition at 10 µM: read-out: h % I (10 μM)
Experimental: The functional activity of the test compounds was determined by measuring changes in intracellular calcium concentration using a Ca^2+-sensitive fluorescent dye and FLIPR™ technology. Increases in Ca^2+ concentration were readily detected upon challenge with capsaicin. HEK293 Cells expressing human VR1 were grown on poly-D-lysine coated 384 well black-walled plates (BD 354663) and 1 day later loaded with Calcium 3 Dye for 35 min at 37 C, 5% CO2 and then for 25 min at room temperature, and subsequently tested for agonist-induced increases in intracellular Ca^2+ levels using FLIPR™ technology. Cells were challenged with test compounds (at varying concentrations, which are indicated in parentheses in the heading of the table below) and intracellular Ca^2+ was measured for 5 min prior to the addition of capsaicin to all wells to achieve a final concentration of eliciting an approximate 80% maximal response ([…]). EC50 or IC50 values were determined from dose-response studies. Curves were generated using the average of quadruplicate wells for each data point.

[3] = inhibition of capsaicin response
[4] = inhibition of capsaicin response, 5 μM

T1 sequence (Q8NER1 whole entry): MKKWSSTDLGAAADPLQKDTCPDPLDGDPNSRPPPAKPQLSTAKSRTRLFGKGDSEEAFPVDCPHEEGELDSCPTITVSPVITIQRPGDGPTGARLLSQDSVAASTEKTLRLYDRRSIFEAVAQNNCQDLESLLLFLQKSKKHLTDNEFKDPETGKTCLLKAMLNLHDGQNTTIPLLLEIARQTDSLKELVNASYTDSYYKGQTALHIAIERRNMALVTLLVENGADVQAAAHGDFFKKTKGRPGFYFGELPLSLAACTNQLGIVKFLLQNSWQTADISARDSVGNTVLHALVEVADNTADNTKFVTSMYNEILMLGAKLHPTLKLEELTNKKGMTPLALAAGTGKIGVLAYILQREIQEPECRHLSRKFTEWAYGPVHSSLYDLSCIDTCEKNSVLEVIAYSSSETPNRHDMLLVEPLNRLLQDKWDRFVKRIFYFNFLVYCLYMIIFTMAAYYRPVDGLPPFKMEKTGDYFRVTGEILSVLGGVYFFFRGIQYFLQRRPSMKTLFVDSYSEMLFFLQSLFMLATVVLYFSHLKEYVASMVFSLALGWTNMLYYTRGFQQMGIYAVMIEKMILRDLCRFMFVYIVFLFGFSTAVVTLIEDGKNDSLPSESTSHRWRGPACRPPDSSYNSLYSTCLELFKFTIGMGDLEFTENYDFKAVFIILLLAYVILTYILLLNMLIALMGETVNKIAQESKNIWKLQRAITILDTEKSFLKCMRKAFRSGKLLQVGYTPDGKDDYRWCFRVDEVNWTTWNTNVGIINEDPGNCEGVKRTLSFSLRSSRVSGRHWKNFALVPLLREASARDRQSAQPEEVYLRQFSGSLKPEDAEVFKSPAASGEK

Row | Ki [1] [nM] | IC50 [2] [nM] | inhibition at 1 µM [2, 3] [%] | inhibition at 1 µM [1] [%] | SMILES | also measured
1 | 47.8 | 40.2 | 95 |  | O=C(CCc1ccc(C(F)(F)F)cc1)Nc1ccc(-n2ccnc2)c(C(F)(F)F)c1 [Cpd 207] | inhibition at 5 µM [2, 4]: 100%
2 | 103 |  |  | 84 | CC(C)(C)c1ccc(CCC(=O)Nc2ccc(-c3cccnc3)nc2)cc1 [Cpd 136] | Emax at 12 µM ([2]; agonist response): 78%
3 | 15 | 228 | 95 |  | Cc1cc(NC(=O)CCc2ccc(C(C)(C)C)cc2)ccc1-c1ccccc1O [Cpd 97] | inhibition at 5 µM [2, 4]: 104%
4 | 22.2 | 60 |  |  | CC(C)(C)c1ccc(CCC(=O)Nc2ccc(-n3cnc(Cl)c3Cl)cc2)cc1 [Cpd 211] | inhibition at 5 µM [2, 4]: 99%
5 | 140 |  | 38 |  | Cc1cn(-c2ccc(NC(=O)/C=C/c3ccc(C(F)(F)F)cn3)cc2C(F)(F)F)cn1 [Cpd 277] | 
6 | 269 |  |  | 62 | O=C(CCc1ccc(C(F)(F)F)cc1)Nc1ccc(-c2ccc(CO)cc2)cc1 [Cpd 80] | Emax at 12 µM ([2]; agonist response): 77%
7 |  |  |  |  | Cc1nc(-c2ccc(NC(=O)CCc3ccc(C(C)(C)C)cc3)cc2)cs1 [Cpd 195] | h Binding % I (1 μM) [1]: 75%; h % I (5 μM) [2, 4]: 20%
8 | 34 |  | 93 |  | CC(C)(C)c1ccc(CCC(=O)Nc2ccc(-c3cccc(O)c3)c(CO)c2)cc1 [Cpd 93] | Emax at 6 µM ([2]; agonist response, 6 μM, read-out: % Response Relative to EC80 of Capsaicin (6 μM)): 153%; EC50 [2]: 65 nM
9 |  | 0.283 |  |  | CC(C)(C)c1ccc(CCC(=O)Nc2ccc(-c3csnn3)cc2)cc1 [Cpd 197] | h Binding % I (1 μM) [1]: 62%
10 | 99.8 | 121 |  |  | O=C(CCc1ccc(C(F)(F)F)cc1)Nc1ccc(-c2ccncc2)c(C(F)(F)F)c1 [Cpd 220] | inhibition at 5 µM [2, 4]: 100%
11 |  |  |  |  | CC(C)(C)c1ccc(CCC(=O)Nc2ccc(-c3cccc(OC(F)(F)F)c3)cc2)cc1 [Cpd 26] | h Binding % I (1 μM) [1]: 10%; % Response Relative to EC80 of Capsaicin (12 μM) ([2]; agonist response): 65%
12 |  | 2080 |  | 1 | CC(C)(C)c1ccc(CCC(=O)Nc2ccccc2-c2ccc(CO)cc2)cc1 [Cpd 20] | inhibition at 10 µM [2, 3]: 70%
13 |  |  |  |  | NC(=O)c1cccc(-c2ccc(NC(=O)CCc3ccc(C(F)(F)F)cc3)cc2)c1 [Cpd 48] | h Binding % I (1 μM) [1]: 2.1%; % Response Relative to EC80 of Capsaicin (12 μM) ([2]; agonist response): 57%
14 | 85.5 | 290 | 88 |  | Cc1cc(NC(=O)CCc2ccc(Cl)cc2)cnc1-n1cnc(Cl)c1Cl [Cpd 234] | 
15 | 41 |  |  | 88 | CC(C)(C)c1ccc(CCC(=O)Nc2ccc(-c3cccc(O)c3)nc2)cc1 [Cpd 129] | Emax at 12 µM ([2]; agonist response): 126%; EC50 [2]: 17 nM
16 | 1000 | 259 | 98 |  | Cc1cn(-c2ccc(NC(=O)CCc3ccc(C(F)(F)F)cn3)cc2C(F)(F)F)cn1 [Cpd 233, N-[4-(4-Methyl-imidazol-1-yl)-3-trifluoromethyl-phenyl]-3-(5-trifluoromethyl-pyridin-2-yl)-propionamide] | 
17 | 145 |  |  | 84 | CC(C)(C)c1ccc(CCC(=O)Nc2ccc(-c3cccc([N+](=O)[O-])c3)cc2)cc1 [Cpd 11] | inhibition at 10 µM [2, 3]: 36%
18 | 98.6 |  |  | 73 | O=C(CCc1ccc(C(F)(F)F)cc1)Nc1ccc(-c2ccc(O)cc2)nc1 [Cpd 148] | Emax at 12 µM ([2]; agonist response): 74%
19 |  |  |  | 43 | COC(=O)c1cccc(-c2ccc(NC(=O)CCc3ccc(C(C)(C)C)cc3)cc2)c1 [Cpd 29, 4′-[3-(4-tert-butyl-phenyl)-propionylamino]-biphenyl-3-carboxylic acid methyl ester] | inhibition at 10 µM [2, 3]: 36%
20 | 88.7 | 41 | 100 |  | Cc1cn(-c2ccc(NC(=O)/C=C/c3ccc(SC(F)(F)F)cc3)cc2C(F)(F)F)cn1 [Cpd 208] | 
21 | 134 | 724 |  |  | O=C(CCc1ccc(C(F)(F)F)cc1)Nc1cnc(-n2cnc(Cl)c2Cl)c(C(F)(F)F)c1 [Cpd 251] | inhibition at 5 µM [2, 4]: 101%
22 |  |  |  |  | CC(C)(C)c1ccc(CCC(=O)Nc2ccc(-c3cccc(F)c3)cc2)cc1 [Cpd 15] | h Binding % I (1 μM) [1]: 41%; % Response Relative to EC80 of Capsaicin (12 μM) ([2]; agonist response): 80%
